Experimental data from patent publication US10370438B2, “Histamine-releasing factor (HRF), HRF-receptor and methods of modulating inflammation” (LA JOLLA INSTITUTE FOR ALLERGY AND IMMUNOLOGY, priority 2010, dated 2019).
Entries after “also recorded” stand apart in the source; their conditions may differ.

Tests used:
BALB/c mice = experiment: Aspergillus fumigatus allergen-induced airway inflammation model; format: in vivo, mouse; conditions: intranasal 200 ug/50 ul, 30 min before each immunization from the second week
mice = experiment: T cell-dependent/mast cell-independent airway inflammation model (OVA with alum); format: in vivo, mouse; conditions: mice immunized with OVA with alum and challenged with OVA
HRF/IgE binding = experiment: Competition ELISA of IgE binding to GST-mHRF-coated wells; parameters: species or system mouse
Description: (§1) To identify an inhibitor of HRF/Ig interactions to dissect the extracellular function (═HRF function as a cytokine) separate from the intracellular functions in vivo settings, the major Ig-interacting HRF sequence was studied as a specific inhibitor of HRF/Ig interactions. IgE molecules were incubated in GST-mHRF-coated wells in the presence or absence (−) of the indicated concentrations of competitors, GST-N19, GST-mHRF or mHRF-His6 for 2 hours. After incubation, bound-IgE was detected by incubation with biotinylated anti-mouse IgE mAb, followed by streptavidin-HRP. […] By contrast, none of the shorter mHRF peptides tested (residues 1-6, 1-12, 5-19, and 9-19) inhibited HRF/IgE binding. GST-N19 inhibited HRF/IgG binding as well.

CHO-K1 cells = conditions: 800 nM H2O2, 2 days
Description: (§2) To analyze the effect of GST-N19 on intracellular functions of HRF/TCTP, the indicated cells were cultured in the absence (−) or presence of the indicated concentrations of GST or GST-N19 for 2 days, and live cells were counted in the presence of Trypan blue. […] The usual dose of HRF to stimulate basophils is 1.6-5 μM (Langdon, et al., J Leukoc Biol 84, 1151 (October, 2008)). Apoptosis was induced by growth factor withdrawal, IL-3 depletion, in BMMCs for 3 days and by 800 nM H2O2 in CHO-K1 cells for 2 days, and live cells were counted.

[1] = system: CHO-K1 (Chinese hamster ovary cell); conditions: CHO-K1, 3.6 or 36 μM, 2 days
Description: as §2

C57BL/6 mice = experiment: OVA-induced mast cell-dependent airway inflammation model; format: in vivo, mouse
Description: Mice were sensitized with OVA (10 μg in 0.1 ml saline) at days 0, 7, 14, 21, 28, and 35. Sensitized mice were challenged with OVA (20 μg in 20 μl saline) at days 40, 43 and 46. Some mice were pretreated with GST, GST-N19 (400 μg in PBS), or N19 peptide (40 μg in 2% DMSO-containing PBS) 15 minutes before OVA challenge. Twenty-four hours after the last challenge, lung function in response to methacholine was tested using FlexiVent system (SCIREQ Scientific Respiratory Equipment). Mice were sacrificed and plasma, BAL fluids, and lung tissues were collected. Cells in BAL fluids were counted, and specific cell numbers were calculated after May-Giemsa staining of Cytospin preparations. Immunofluorescence microscopy was performed on membrane-permeabilized and non-permeabilized lung tissues. For staining of lung tissues by staining of H&E and periodic acid-Schiff (PAS), lung tissues were fixed with formalin and embedded in paraffin. For measurement of cytokine levels in lung tissues, lung homogenates were prepared (Oyoshi et al., Immunol. 120:303 (2007)) and cytokines quantified by ELISA. HRF in lung homogenates and plasma was SDS-PAGE and immunoblotting with anti-HRF Ab (Santa Cruz Biotechnology).
Asthma is a type 2 helper T cell-driven, chronic inflammatory lung disease (Wills-Karp, Annu Rev Immunol 17, 255 (1999)). To study HRF involvement in allergic airway inflammation, an airway inflammation model was utilized, in which mast cells are implicated in amplifying antigen-dependent chronic inflammation (Williams, et al., J Exp Med 192, 455 (Aug. 7, 2000)). C57BL/6 mice were first sensitized with OVA (10 μg) at days 0, 7, 14, 21, 28 and 35. At days 40, 43 and 46, mice were intranasally challenged with OVA (20 μg) or PBS. Some mice were intranasally pretreated with GST or GST-N19 (400 μg) before every OVA challenge. Twenty-four hours after the last challenge, mice were sacrificed and BAL fluids and lung tissues were collected. Lung tissues were homogenized.

BMMCs = format: cell-based, mouse
WT mice = experiment: IgE/antigen-induced PCA with GST-N19 ear injection; format: in vivo, mouse
Description: Mouse ears were first sensitized with 0.5 μg anti-TNP (C38-2 in the right ear and C48-2 in the left ear) IgE. After 24 hours, Evans' blue dye was intravenously (i.v.) injected, and TNP26-BSA (Ag: 0.1 μg) or mHRF-His6 (10 μg) were immediately injected into the ears. The acute (30 minute) reactions were analyzed by measurement of Evans' blue dye leakage. The ear thickness was measured using a micrometer (Mitutoyo) at 0.5, 1, 2, 4, 6, 8, 12, and 24 hours after mHRF-His6challenge. As a negative control, saline was injected into the ears in place of antigen or HRF challenge. IgG-mediated response was performed by sensitization with 2 μg IgG1 (in place of anti-TNP IgE) and challenge with anti-mouse IgG1 Ab (0.6 μg: Southern Biotechnology, in place of TNP26-BSA). Engraftmanet of Kit^W-sh/W-sh mice with BMMCs was performed 6 weeks before study (Nakano, T., et al. J Exp Med 162:1025-1043 (1985)). In some studies, mice were sensitized and stimulated as described above but without Evans blue.
To study HRFs involvement in IgE/antigen-induced PCA reactions, WT mice were overnight sensitized the IgE. Left ears were injected with GST and the right ears were injected with GST-N19, and then TNP26-BSA were injected in both ears. Ear thickness was measured over a 10 hour period. *, **, ***: p<0.05, p<0.01, p<0.001 by Student's t-test. […]

HRF/IgG binding = experiment: Inhibition of HRF/IgG binding; parameters: species or system mouse
Description: as §1

GST-N19: GST fusion protein encoding the first 19 residues of mHRF; inhibitor of HRF/Ig interactions
Airway inflammation (BALB/c mice): efficacy of GST-N19 was confirmed; also recorded: inhibits
Airway inflammation (mice): failed to inhibit; also recorded: does not inhibit
Potency of inhibition of IgE binding relative to full-length HRF competitors (HRF/IgE binding): potency similar to that shown by GST-mHRF and mHRF-His6
Inhibition of IgE binding to immobilized GST-mHRF (HRF/IgE binding; competitor incubated 2 hours): inhibited
Live cells after induced apoptosis (CHO-K1 cells): not affected
Viability or proliferation [1]: did not affect
Inflammatory cells, particularly eosinophils and neutrophils, in BAL fluids (C57BL/6 mice; 400 μg before every OVA challenge): reduced
Inflammatory cells and goblet cell hyperplasia in the lung (C57BL/6 mice; H&E and PAS staining): reduced
HRF in plasma (C57BL/6 mice; OVA-immunized/OVA-challenged mice): reduced
Airway inflammation (C57BL/6 mice; intranasal pretreatment before each OVA challenge): abrogated
Production of IL-5 in lung tissues (C57BL/6 mice; lung homogenates, ELISA): drastically decreased
Production of IL-13 in lung tissues (C57BL/6 mice; lung homogenates, ELISA): drastically decreased; also recorded: suppression
HRF-reactive IgG levels in plasma (C57BL/6 mice; mouse, in vivo): not affected
OVA-specific IgE levels in plasma (C57BL/6 mice; mouse, in vivo): not affected
OVA-specific IgG1 levels in plasma (C57BL/6 mice; mouse, in vivo): not affected
OVA-specific IgG2a levels in plasma (C57BL/6 mice; mouse, in vivo): not affected
Airway hyper-responsiveness (AHR) (C57BL/6 mice; response to methacholine): inhibited
Effects on mast cell growth and apoptosis (BMMCs): absence of GST-N19 effects
PCA (ear thickness) (WT mice; HRF-nonreactive IgE-induced PCA): insensitive
Acute reactions and LPR (ear thickness) (WT mice; HRF-reactive IgE-induced PCA, TNP26-BSA challenge): significantly reduced
Inhibition of HRF/IgG binding (HRF/IgG binding): inhibited
